Test: mn = molality of the nth substance listed, in mol/kg
Settings: 74.66 kPa, Liquid; for speed of sound: Frequency=3 MHz, Single path-length method; for mass density: Vibrating tube method

Cc1ccnc([N-]S(=O)(=O)c2ccc(N)cc2)n1.[Na+] + O
Settings	mass density [kg/m3]	speed of sound [m/s]
278.15 K, m1 = 0.005	1000.56	1428.1
278.15 K, m1 = 0.008	1000.91	1428.7
278.15 K, m1 = 0.01	1001.15	1429.2
278.15 K, m1 = 0.01486	1001.72	1430.2
278.15 K, m1 = 0.02002	1002.33	1431
278.15 K, m1 = 0.025	1002.91	1432.2
278.15 K, m1 = 0.03001	1003.5	1433.4
278.15 K, m1 = 0.035	1004.08	1434.2
278.15 K, m1 = 0.03931	1004.59	1435.5
278.15 K, m1 = 0.045	1005.25	1436.4
278.15 K, m1 = 0.05	1005.83	1437.5
278.15 K, m1 = 0.05502	1006.42	1438.5
278.15 K, m1 = 0.05998	1007	1439.4
283.15 K, m1 = 0.005	1000.28	1448.9
283.15 K, m1 = 0.008	1000.63	1449.4
283.15 K, m1 = 0.01	1000.87	1449.8
283.15 K, m1 = 0.01486	1001.42	1450.8
283.15 K, m1 = 0.02002	1002.02	1451.6
283.15 K, m1 = 0.025	1002.6	1452.7
283.15 K, m1 = 0.03001	1003.18	1453.7
283.15 K, m1 = 0.035	1003.75	1454.6
283.15 K, m1 = 0.04002	1004.33	1455.6
283.15 K, m1 = 0.045	1004.9	1456.7
283.15 K, m1 = 0.04968	1005.43	1457.4
283.15 K, m1 = 0.05502	1006.05	1458.5
283.15 K, m1 = 0.05998	1006.62	1459.4
288.15 K, m1 = 0.005	999.679	1467.5
288.15 K, m1 = 0.008	1000.02	1467.8
288.15 K, m1 = 0.01	1000.25	1468.2
288.15 K, m1 = 0.01486	1000.8	1469.3
288.15 K, m1 = 0.02002	1001.39	1469.9
288.15 K, m1 = 0.025	1001.96	1470.9
288.15 K, m1 = 0.03001	1002.53	1471.8
288.15 K, m1 = 0.035	1003.09	1472.7
288.15 K, m1 = 0.04002	1003.66	1473.7
288.15 K, m1 = 0.04499	1004.23	1474.6
288.15 K, m1 = 0.05	1004.8	1475.4
288.15 K, m1 = 0.05501	1005.37	1476.5
288.15 K, m1 = 0.05998	1005.94	1477.2
293.15 K, m1 = 0.005	998.778	1483.7
293.15 K, m1 = 0.008	999.118	1484
293.15 K, m1 = 0.01	999.342	1484.4
293.15 K, m1 = 0.01486	999.886	1485.3
293.15 K, m1 = 0.02002	1000.47	1486.1
293.15 K, m1 = 0.025	1001.03	1487
293.15 K, m1 = 0.03001	1001.59	1487.8
293.15 K, m1 = 0.035	1002.15	1488.6
293.15 K, m1 = 0.04002	1002.71	1489.5
293.15 K, m1 = 0.04499	1003.27	1490.3
293.15 K, m1 = 0.05	1003.84	1491.2
293.15 K, m1 = 0.05501	1004.4	1492
293.15 K, m1 = 0.05998	1004.96	1492.8
298.15 K, m1 = 0.005	997.615	1497.8
298.15 K, m1 = 0.008	997.95	1498.2
298.15 K, m1 = 0.01	998.172	1498.5
298.15 K, m1 = 0.01486	998.708	1499.3
298.15 K, m1 = 0.02002	999.286	1500
298.15 K, m1 = 0.025	999.841	1500.9
298.15 K, m1 = 0.03001	1000.39	1501.7
298.15 K, m1 = 0.035	1000.95	1502.5
298.15 K, m1 = 0.04002	1001.5	1503.3
298.15 K, m1 = 0.04499	1002.05	1504.1
298.15 K, m1 = 0.05	1002.61	1504.8
298.15 K, m1 = 0.05501	1003.17	1505.7
298.15 K, m1 = 0.05998	1003.73	1506.5
303.15 K, m1 = 0.005	996.212	1510
303.15 K, m1 = 0.008	996.544	1510.5
303.15 K, m1 = 0.01	996.764	1510.8
303.15 K, m1 = 0.01486	997.296	1511.6
303.15 K, m1 = 0.02002	997.863	1512.3
303.15 K, m1 = 0.025	998.416	1513.1
303.15 K, m1 = 0.03001	998.961	1513.8
303.15 K, m1 = 0.035	999.509	1514.6
303.15 K, m1 = 0.04002	1000.06	1515.3
303.15 K, m1 = 0.04499	1000.61	1516.1
303.15 K, m1 = 0.05	1001.16	1516.8
303.15 K, m1 = 0.05501	1001.71	1517.6
303.15 K, m1 = 0.05998	1002.26	1518.3
308.15 K, m1 = 0.005	994.593	1520.6
308.15 K, m1 = 0.008	994.922	1521.1
308.15 K, m1 = 0.01	995.14	1521.4
308.15 K, m1 = 0.01486	995.663	1522.1
308.15 K, m1 = 0.02002	996.227	1522.8
308.15 K, m1 = 0.025	996.774	1523.5
308.15 K, m1 = 0.03001	997.316	1524.2
308.15 K, m1 = 0.035	997.858	1524.9
308.15 K, m1 = 0.04002	998.402	1525.7
308.15 K, m1 = 0.04499	998.941	1526.3
308.15 K, m1 = 0.05	999.494	1527.1
308.15 K, m1 = 0.05501	1000.03	1527.8
308.15 K, m1 = 0.05998	1000.58	1528.4

Reference: the NIST ThermoML archive (doi:10.1016/j.jct.2017.11.007)
